EC50 data for five compounds are collected here from patent publication US8791155B2, “Chroman derivatives” (Edison Pharmaceuticals, Inc., priority 2003, dated 2014).

Molecules are shown by their SMILES.

The assay has as its system dopaminergic neuronal cell line. Kind of assay: High glutamate-induced oxidative stress assay (HGOS). Format: cell-based. As to conditions: Mus musculus; 30 mM glutamate, 16 hrs; read-out: EC50, protection against HGOS cell injury and cell death. The essentials:
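Mouse dopaminergic cells were grown 72 h at 33° C, washed into HBSS, then exposed to compounds in glucose-free DMEM with 1 mM glucose and 30 mM glutamate for 16 h at 37° C. Viability was read as Cell Tracker Green fluorescence at 485/538 nm after 30 min of 5 μM dye loading.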
As to `COC(=O)c1ccc(-c2c(O)c(C)c(C)c3c2CCC(C)(C)O3)cc1` [4-(6-Hydroxy-2,2,7,8-tetramethyl-chroman-5-yl)-benzoic acid methyl ester], the EC50 (usually the concentration giving half of the maximal effect) was under 5 µM.

On to `Cc1c(O)cc2c(c1C)OC(C)(CC/C=C1\SC(=O)NC1=O)CC2` (centres unmarked) [5-[3-(6-Hydroxy-2,7,8-trimethyl-chroman-2-yl)-propylidene]-thiazolidine-2,4-dione], for which the EC50 is under 5 µM.

For `Cc1c(C)c2c(c(C)c1O)CCC(C)(C=C(Br)Br)O2` (centres unmarked) [2-(2,2-Dibromo-vinyl)-2,5,7,8-tetramethyl-chroman-6-ol], the EC50 is under 5 µM.

As for `C=CCSCc1c(O)c(C)c(C)c2c1CCC(C)(C)O2` [5-Allylsulfanylmethyl-2,2,7,8-tetramethyl-chroman-6-ol], the EC50 was under 5 µM.

As for `CC1=NN(c2ccccc2)C(=O)C1C(CCC1(C)CCc2cc(O)c(C)c(C)c2O1)C1C(=O)N(c2ccccc2)N=C1C` (centres unmarked) [1-(6-Hydroxy-2,7,8-trimethyl-chroman-2-yl)-3-bis-(5-methyl-2-phenyl-2,4-dihydro-pyrazol-3-one-4-yl)-propane], the EC50 was under 5 µM.
